target: human capsaicin receptor (VR1) (Homo sapiens, UniProt Q8NER1); assay: Capsaicin receptor binding assay ([3H]RTX competition, VR1-transfected HEK293 membranes)
Sequence (Q8NER1 whole entry): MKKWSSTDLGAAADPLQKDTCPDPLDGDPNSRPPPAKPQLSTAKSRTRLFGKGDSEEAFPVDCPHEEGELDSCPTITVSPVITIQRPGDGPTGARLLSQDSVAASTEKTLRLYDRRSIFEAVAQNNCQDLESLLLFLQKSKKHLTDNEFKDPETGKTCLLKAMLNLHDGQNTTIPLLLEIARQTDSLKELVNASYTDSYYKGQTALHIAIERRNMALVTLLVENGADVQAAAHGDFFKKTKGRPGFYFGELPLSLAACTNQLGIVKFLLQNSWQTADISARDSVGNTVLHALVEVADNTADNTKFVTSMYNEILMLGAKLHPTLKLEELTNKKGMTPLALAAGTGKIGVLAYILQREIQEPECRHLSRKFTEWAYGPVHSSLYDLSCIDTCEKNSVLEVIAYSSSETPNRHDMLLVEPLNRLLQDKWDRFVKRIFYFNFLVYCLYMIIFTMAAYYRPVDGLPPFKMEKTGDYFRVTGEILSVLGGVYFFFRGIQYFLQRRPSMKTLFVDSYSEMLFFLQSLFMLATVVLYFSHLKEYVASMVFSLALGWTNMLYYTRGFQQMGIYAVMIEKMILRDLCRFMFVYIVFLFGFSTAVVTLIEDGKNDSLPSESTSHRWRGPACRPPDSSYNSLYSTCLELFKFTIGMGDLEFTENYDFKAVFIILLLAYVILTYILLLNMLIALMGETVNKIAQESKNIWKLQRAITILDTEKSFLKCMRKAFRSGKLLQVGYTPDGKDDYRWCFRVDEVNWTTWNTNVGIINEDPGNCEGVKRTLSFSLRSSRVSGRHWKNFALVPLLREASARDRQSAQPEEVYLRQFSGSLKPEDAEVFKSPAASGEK

Ki, < 1000 nM:
CC(C)COCc1nc(Nc2ccc(C(C)(C)C#N)cc2)c2ccc(-c3ncccc3C(F)(F)F)nc2n1 [Compound 167, 2-{4-[2-Isobutoxymethyl-7-(3-trifluoromethyl-pyridin-2-yl)-pyrido[2,3-d]pyrimidin-4-ylamino]-phenyl}-2-methyl-propionitrile]
CC(C)COCc1nc(Nc2ccc(S(=O)(=O)C(F)(F)F)cc2)c2ccc(-c3ncccc3C(F)(F)F)nc2n1 [Compound 168, [2-Isobutoxymethyl-7-(3-trifluoromethyl-pyridin-2-yl)-pyrido[2,3-d]pyrimidin-4-yl]-(4-trifluoromethanesulfonyl-phenyl)-amine]
CCOC(=O)COCc1nc(Nc2ccc(C(F)(F)F)cc2)c2ccc(-c3ncccc3C(F)(F)F)cc2n1 [Compound 169, [4-(4-Trifluoromethyl-phenylamino)-7-(3-trifluoromethyl-pyridin-2-yl)-quinazolin-2-ylmethoxy]-acetic acid ethyl ester]
OCc1nc(Nc2ccc(C(F)(F)F)cc2)c2ccc(-c3ncccc3C(F)(F)F)nc2n1 [Compound 171, [4-(4-Trifluoromethyl-phenylamino)-7-(3-trifluoromethyl-pyridin-2-yl)-pyrido[2,3-d]pyrimidin-2-yl]-methanol]
CCOC(=O)c1nc(Nc2ccc(C(F)(F)F)cc2)c2ccc(-c3ncccc3C)nc2n1 [Compound 172, 7-(3-Methyl-pyridin-2-yl)-4-(4-trifluoromethyl-phenylamino)-pyrido[2,3-d]pyrimidine-2-carboxylic acid ethyl ester]
CCOC(=O)c1nc(Nc2ccc(C(F)(F)F)cc2)c2ccc(-c3ncccc3C(F)(F)F)nc2n1 [Compound 173, 4-(4-Trifluoromethyl-phenylamino)-7-(3-trifluoromethyl-pyridin-2-yl)-pyrido[2,3-d]pyrimidine-2-carboxylic acid ethyl ester]
Cc1cccnc1-c1ccc2c(Nc3ccc(C(F)(F)F)cc3)nc(C3CCOC3)nc2n1 (stereo not shown) [Compound 174, [7-(3-Methyl-pyridin-2-yl)-2-(tetrahydro-furan-3-yl)-pyrido[2,3-d]pyrimidin-4-yl]-(4-trifluoromethyl-phenyl)-amine]
Cc1cccnc1-c1ccc2c(Nc3ccc(C(C)(C)C#N)cc3)nc(C3CCOC3)nc2n1 (stereo not shown) [Compound 175, 2-Methyl-2-{4-[7-(3-methyl-pyridin-2-yl)-2-(tetrahydro-furan-3-yl)-pyrido[2,3-d]pyrimidin-4-ylamino]-phenyl}-propionitrile]
CC(C)COCc1nc(Nc2ccc(C(F)(F)F)cc2)c2ccc(-c3ncccc3Cl)nc2n1 [Compound 176, [7-(3-Chloro-pyridin-2-yl)-2-isobutoxymethyl-pyrido[2,3-d]pyrimidin-4-yl]-(4-trifluoromethyl-phenyl)-amine]
CC(C)COCc1nc(Nc2ccc(C(F)(F)F)nc2)c2ccc(-c3ncccc3Cl)nc2n1 [Compound 177, [7-(3-Chloro-pyridin-2-yl)-2-isobutoxymethyl-pyrido[2,3-d]pyrimidin-4-yl]-(6-trifluoromethyl-pyridin-3-yl)-amine]
Cc1cc(Nc2nc(COCC(C)C)nc3nc(-c4ncccc4Cl)ccc23)ccc1C(F)(F)F [Compound 178, [7-(3-Chloro-pyridin-2-yl)-2-isobutoxymethyl-pyrido[2,3-d]pyrimidin-4-yl]-(3-methyl-4-trifluoromethyl-phenyl)-amine]
CC(C)COCc1nc(Nc2ccc(C(C)(C)C#N)cc2)c2ccc(-c3ncccc3Cl)nc2n1 [Compound 179, 2-{4-[7-(3-Chloro-pyridin-2-yl)-2-isobutoxymethyl-pyrido[2,3-d]pyrimidin-4-ylamino]-phenyl}-2-methyl-propionitrile]
CC(C)COCc1nc(Nc2ccc(OC(F)(F)F)cc2)c2ccc(-c3ncccc3Cl)nc2n1 [Compound 180, [7-(3-Chloro-pyridin-2-yl)-2-isobutoxymethyl-pyrido[2,3-d]pyrimidin-4-yl]-(4-trifluoromethoxy-phenyl)-amine]
